From US20260123631A1, “NATURAL PORPHIN SALT AND USE THEREOF AS PLANT GROWTH REGULATOR AND PLANT IMMUNITY INDUCER” (NANJING BOSTEC BIOLOGICAL ENGINEERING CO., LTD, priority 2022, published 2026) come the findings set out here.

Read-outs that look alike come from different tables or passages of the source.

One series addresses chlorophyllase. Kind of series: In vitro chlorophyllase-inhibiting activity test. The series is classed as biochemical, mung bean. The procedure:
A chlorophyllase inhibition rate of a salt sample solution at each concentration was determined, and an IC50 value for a chlorophyllase inhibition activity of a salt sample was calculated.

Series [1] can be described thus: Stability of sample solutions in the dark/under light. The series is classed as physicochemical. The protocol: Determination: An appropriate amount of a salt sample was taken, dissolved with water, and diluted to prepare a test solution with a concentration of about 10 ppm. An acidic reference substance (extremely-insoluble in water) was prepared with a 30% to 50% ethanol aqueous solution into a test solution with a concentration of about 10 ppm.
Each test solution was scanned by an ultraviolet spectrophotometer (at 0 h) for absorbance in a range of 200 nm to 800 nm immediately after being prepared. Then a test solution of each sample was divided into two parts. One part was placed at room temperature of 25° C. in the dark, and the other part was placed under light with a light intensity of 30,000 lux. At 1 h, 2 h, and 3 h, a solution sample was collected and scanned for absorbance respectively.
An absorbance value of a maximum absorption peak at 0 h (starting) of each test solution was set as a relative content of 100%, and a ratio of an absorbance value at each time point to the absorbance value at 0 h was calculated to determine a relative content, %.

Series [2] in a line: Dilution and pH determination for sample solutions. The series is classed as physicochemical. The procedure:
Method: 0.2500 g of a sample was accurately weighed and added to a 25 mL volumetric flask, dissolved with purified water, and diluted to a specified scale to prepare a 1.00% (10,000.0 ppm) initial solution. The initial solution was diluted with purified water in different ratios to prepare a series of solutions with a concentration of 1,000.0 ppm to 0.1 ppm. A pH value of each sample was determined three times.

The nature of series [3]: Water solubility of the prepared salts. It counts as physicochemical.
Another series deals with wheat. Kind of series: Germination of wheat and growth of seedlings. It counts as in vivo, wheat (Huaimai 35). The conditions noted are these: for Root length / Root number / Root weight / Seedling height / Seedling weight: wheat seedlings. The procedure: Method: 3 replicates were set for each treatment. 50 full seeds with a consistent size were selected each time for each sample, disinfected with sodium hypochlorite for 5 min, rinsed with clear water, and placed in a plastic box filled with 100 g of a sand. 25 mL of a prepared sample solution was poured into the plastic box, and the seeds were arranged regularly. The plastic box was covered with a lid, and then incubated in a 25° C. incubator. The germination was determined when a length of a sprout of a wheat seed exceeded a half of a diameter (long axis) of the wheat seed (determination criterion). According to the growth of wheat, the germ exposure of seeds and the number of germinated seeds were recorded every day. On day 6, 10 wheat seedlings were randomly selected, and a root length, a plant height, and a root number were determined. On day 7, a root weight and an aboveground part weight were determined. All index data was produced based on 3 replicates.

Where [4] appears, read: substrate chlorophyll 120 ppm, sample 0.3 ppm to 30.0 ppm.
[5] abbreviates: under light 30,000 lux, 1 h, salts in water, acidic reference in 30% to 50% ethanol.
The mark [6] stands for this setting: under light 30,000 lux, 2 h, salts in water, acidic reference in 30% to 50% ethanol.
The mark [7] stands for this setting: under light 30,000 lux, 3 h, salts in water, acidic reference in 30% to 50% ethanol.

For the compound magnesium chlorin [Example 55], at chlorophyllase (setting [4]), the “IC50 for chlorophyllase inhibition activity” value stood at 6.22 ppm. Also, the Relative content in series [1] (setting [5]) came to 43.47%; in series [1] (setting [6]) it was 35.26%; in series [1] (setting [7]), 30.41%.
For ammonium chlorin [Example 54], the “IC50 for chlorophyllase inhibition activity” value on chlorophyllase (setting [4]) is 6.05 ppm.
calcium zinc chlorophyllin [Example 37]: the “IC50 for chlorophyllase inhibition activity” value against chlorophyllase is recorded as 17.78 ppm.
Regarding “manganese zinc chlorophyllin [Example 40]”, the “IC50 for chlorophyllase inhibition activity” value against chlorophyllase is recorded as 18.10 ppm.
`C=CC1=C(C)c2cc3[n-]c(cc4nc(cc5[n-]c(cc1n2)c(C)c5C=C)C(C)=C4CCC(=O)[O-])c(CCC(=O)[O-])c3C.[Cl-].[Fe+3].[Mg+2]` [Example 13, magnesium chlorhematin]: the pH entry in series [2] (0.1 ppm in purified water) is on record as “(6.92)”; in series [2] (1.0 ppm in purified water), “(7.27)”; in series [2] (10.0 ppm in purified water), “(7.63)”; in series [2] (20.0 ppm in purified water), “(7.77)”; in series [2] (30.0 ppm in purified water), “(7.87)”; in series [2] (100.0 ppm in purified water), “(8.01)”. In addition, the Relative content in series [1] (in the dark, 25° C., 0 h) is listed as 100.00%; in series [1] (in the dark, 25° C., 1 h) it was 100.10%; in series [1] (in the dark, 25° C., 2 h), 99.76%; in series [1] (in the dark, 25° C., 3 h), 99.38%; in series [1] (under light 30,000 lux, 0 h), 100.00%; in series [1] (setting [5]) it was 82.11%. Also, the Relative content in series [1] (setting [6]) amounted to 81.84%; in series [1] (setting [7]) it was 75.61%. The solubility in water result in series [3] is “soluble”.
For “calcium copper chlorophyllin [Example 46]”, the “IC50 for chlorophyllase inhibition activity” value on chlorophyllase (setting [4]) worked out at 13.49 ppm.
In the case of zinc copper chlorophyllin [Example 50], the “IC50 for chlorophyllase inhibition activity” value on chlorophyllase (setting [4]) is 14.19 ppm. In addition, the figures for the Relative content in series [1] (setting [5]), in series [1] (setting [6]) and in series [1] (setting [7]) were 69.84%, 65.37% and 60.04%, respectively. The solubility in water entry in series [3] is reported as “slightly soluble”.
On to zinc iron chlorin [Example 28], for which, at chlorophyllase (setting [4]), the “IC50 for chlorophyllase inhibition activity” value was determined as 5.66 ppm. For the same compound, the Relative content in series [1] (setting [5]) is reported as 71.19%; in series [1] (setting [6]), 65.23%; in series [1] (setting [7]), 61.37%. The solubility in water entry in series [3] is recorded as “slightly soluble”.
As to zinc zinc chlorophyllin [Example 41], the “IC50 for chlorophyllase inhibition activity” value against chlorophyllase (setting [4]) is recorded as 18.77 ppm. Moreover, the values for the Relative content in series [1] (setting [5]), in series [1] (setting [6]) and in series [1] (setting [7]) were 71.62%, 66.31% and 63.93%, respectively. For the same compound, the solubility in water entry in series [3] was “slightly soluble”.
Regarding “ammonium iron chlorophyllin [Example 31]”, the “IC50 for chlorophyllase inhibition activity” value against chlorophyllase (setting [4]) turned out to be 5.43 ppm.
On the same count and under the same terms, for calcium chlorin [Example 56] the value was 6.43 ppm.
Consider `C=CC1=C(C)c2cc3[n-]c(cc4nc(cc5[n-]c(cc1n2)c(C)c5C=C)C(C)=C4CCC(=O)[O-])c(CCC(=O)[O-])c3C.[Cl-].[Fe+3].[Na+].[Na+]` [Example 11, sodium chlorhematin], for which the pH in series [2] (20 ppm solution in water (Comparative Test 2)) turned out to be 7.5. For the same compound, the Relative content in series [1] (setting [5]) was 74.11%; in series [1] (setting [6]), 69.68%; in series [1] (setting [7]), 67.73%. Moreover, the solubility in water entry in series [3] is reported as “easily soluble”.
On to “magnesium copper chlorophyllin [Example 45]”, for which, on chlorophyllase (setting [4]), the “IC50 for chlorophyllase inhibition activity” value was 11.87 ppm. In addition, the Relative content in series [1] (setting [5]) stood at 74.46%; in series [1] (setting [6]) it was 68.03%; in series [1] (setting [7]), 66.86%.
Consider “magnesium zinc chlorophyllin [Example 36]”, for which, at chlorophyllase (setting [4]), the “IC50 for chlorophyllase inhibition activity” value was 16.37 ppm. Besides, the results for the Relative content in series [1] (setting [5]), in series [1] (setting [6]) and in series [1] (setting [7]) were 53.53%, 45.74% and 39.42%, respectively.
In the case of “ammonium zinc chlorophyllin [Example 35]”, the “IC50 for chlorophyllase inhibition activity” value at chlorophyllase (setting [4]) was found to be 18.06 ppm.
As for “sodium zinc chlorophyllin [Zinc chlorophyllin Na^+]”, at chlorophyllase (setting [4]), the “IC50 for chlorophyllase inhibition activity” value was 15.91 ppm. Further, the Relative content in series [1] (setting [5]) was 51.90%; in series [1] (setting [6]), 42.51%; in series [1] (setting [7]), 37.81%.
On to “ammonium copper chlorophyllin [Example 44]”, for which, on chlorophyllase, the “IC50 for chlorophyllase inhibition activity” value amounted to 13.68 ppm.
For the compound magnesium iron chlorin [Example 23], at chlorophyllase (setting [4]), the “IC50 for chlorophyllase inhibition activity” value was found to be 5.06 ppm. Besides, the figures for the Relative content in series [1] (setting [5]), in series [1] (setting [6]) and in series [1] (setting [7]) were 74.25%, 66.34% and 62.11%, respectively.
For “sodium copper chlorophyllin [Copper chlorophyllin Na^+]”, the “IC50 for chlorophyllase inhibition activity” value against chlorophyllase (setting [4]) stood at 13.72 ppm. Also, the figures for the Relative content in series [1] (setting [5]), in series [1] (setting [6]) and in series [1] (setting [7]) were 72.50%, 67.03% and 66.30%, respectively.
In the same order, the values of “zinc iron chlorophyllin [Iron chlorophyllin Zn^2+]” are 5.16 ppm, 69.34%, 63.04% and 60.46%.
For potassium protoporphyrin [Example 1], in series [1] (setting [5]), the Relative content is on record as 65.90%. In addition, the Relative content in series [1] (setting [6]) is on record as 56.97%. Moreover, in series [1] (setting [7]), the Relative content was 58.17%. In addition, in the series on wheat (0.0025 ppm), the “Germination rate of wheat” value is 94.7%, the Root length came to 9.63 cm, the Root number is reported as 5.4 and the Root weight is 0.1230 g. In the series on wheat (0.0025 ppm), this compound yielded a Seedling height of 8.95 cm and a Seedling weight of 0.241 g. In the series on wheat (0.0250 ppm), the “Germination rate of wheat” value amounted to 95.3%, the Root length is 10.17 cm, the Root number turned out to be 5.2 and the Root weight was found to be 0.0976 g. In the series with wheat (0.0250 ppm), this compound had a Seedling height of 9.48 cm and a Seedling weight of 0.242 g. Besides, in the series on wheat (0.2500 ppm), the “Germination rate of wheat” value is given as 90.7%, the Root length was 8.68 cm, the Root number was found to be 5.3 and the Root weight stood at 0.1134 g. In the series on wheat (0.2500 ppm), this compound gave a Seedling height of 7.64 cm and a Seedling weight of 0.228 g. Moreover, in series [3], the solubility in water entry is recorded as “easily soluble”.
Consider ammonium iron chlorin [Example 22], for which, at chlorophyllase (setting [4]), the “IC50 for chlorophyllase inhibition activity” value amounted to 5.58 ppm.
Take `C=CC1=C(C)c2cc3[nH]c(cc4nc(cc5[nH]c(cc1n2)c(C)c5C=C)C(C)=C4CCC(=O)[O-])c(CCC(=O)[O-])c3C.[Mn+2]` [Example 5, manganese protoporphyrin]: the figures for the Relative content in series [1] (setting [5]), in series [1] (setting [6]) and in series [1] (setting [7]) were 92.57%, 90.09% and 88.85%, respectively. The solubility in water entry in series [3] is “soluble”.
Turning to “manganese iron chlorophyllin [Iron chlorophyllin Mn^2+]”, the “IC50 for chlorophyllase inhibition activity” value against chlorophyllase (setting [4]) is 5.55 ppm. Also, the Relative content in series [1] (setting [5]) is 70.13%; in series [1] (setting [6]), 61.00%; in series [1] (setting [7]), 58.68%.
In the same order, the values of “calcium iron chlorophyllin [Iron chlorophyllin Ca^2+]” are 5.38 ppm, 81.00%, 74.21% and 63.35%.
Take calcium iron chlorin [Example 24]: at chlorophyllase (setting [4]), the “IC50 for chlorophyllase inhibition activity” value is 5.11 ppm.
Turning to “potassium zinc chlorophyllin [Zinc chlorophyllin K^+]”, at chlorophyllase (setting [4]), the “IC50 for chlorophyllase inhibition activity” value is on record as 15.55 ppm. Besides, the Relative content in series [1] (setting [5]) came to 52.48%; in series [1] (setting [6]), 46.08%; in series [1] (setting [7]) it was 41.51%.
